The values that follow come from patent publication US20020061836A1, “Methods for altering SXR activation using peptide mimetic HIV protease inhibitor SXR ligands” (priority 2000, published 2002).

As usually defined, the EC50 is the concentration giving half of the maximal effect. A high value points to lower potency in that assay. For orientation: Km means the substrate concentration at which the rate is half of its maximum.

Data set [1] addresses T1, human SXR ligand binding domain (Homo sapiens, UniProt O75469).
T1 sequence (O75469 107-434 limits assumed): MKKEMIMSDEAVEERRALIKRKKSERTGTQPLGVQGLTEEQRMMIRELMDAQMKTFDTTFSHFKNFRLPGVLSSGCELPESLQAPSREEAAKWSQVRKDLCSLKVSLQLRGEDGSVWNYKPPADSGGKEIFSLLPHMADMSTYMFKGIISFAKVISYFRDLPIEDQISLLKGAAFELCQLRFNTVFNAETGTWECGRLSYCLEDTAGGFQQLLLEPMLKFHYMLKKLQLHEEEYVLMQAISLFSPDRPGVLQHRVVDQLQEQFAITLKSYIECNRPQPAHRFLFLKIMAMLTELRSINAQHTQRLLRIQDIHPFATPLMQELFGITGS
Nature of the data set: Gal-L-SXR (Gal-SXR) Gal4 reporter transient transfection assay in CV-1 cells. An excerpt: Use of a standard model heterologous cell system to reconstitute SXR agonist and antagonist responsiveness allows SXR activity to be monitored in the absence of the metabolic events which may obscure the process being tested. Any suitable heterologous cell system may be used to test the activation of potential or known SXR nuclear receptor ligands, as long as the cells are capable of being transiently transfected with the appropriate DNA which expresses receptors, reporter genes, response elements, and the like. Cells which constitutively express one or more of the necessary genes may be used as well. Cell systems that are suitable for the transient expression of mammalian genes and which are amenable to maintenance in culture are well known to those skilled in the art. […] Suitable reporter gene constructs are well known to skilled workers in the fields of biochemistry and molecular biology. Activity of the reporter gene can be conveniently normalized to the internal control and the data plotted as fold activation relative to untreated cells.
(§1) The Gal4 reporter activity was normalized to the internal β-galactosidase control and the data plotted as fold activation relative to untreated cells. All transfections contained the Gal4 reporter and a β-galactosidase expression vector as an internal control.
Izbicka et al., Ann. Oncol.
Gal-PXR containing the ligand binding domain of mouse PXR (#AF031814) was obtained from Bruce Blumberg.
Transient Transffection Assays—CV-1 cells were grown and transfected as described.

In data set [2] the target is T2, human RXRα ligand binding domain (Homo sapiens, UniProt P19793).
T2 construct: expressed in transfected cells; host or cells: CV-1
T2 sequence (P19793 203-462): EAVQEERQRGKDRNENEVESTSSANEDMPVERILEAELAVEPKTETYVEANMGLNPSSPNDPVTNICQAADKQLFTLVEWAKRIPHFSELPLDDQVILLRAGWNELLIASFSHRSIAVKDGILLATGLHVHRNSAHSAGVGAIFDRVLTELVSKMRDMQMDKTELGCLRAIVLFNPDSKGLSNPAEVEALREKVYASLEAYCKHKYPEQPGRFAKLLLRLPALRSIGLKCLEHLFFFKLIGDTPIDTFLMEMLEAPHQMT
The data set can be described thus: Gal-L-RXR Gal4 reporter transient transfection assay in CV-1 cells. To be noted: 10 μM paclitaxel. The format is cell-based.
Excerpt: as §1

For a further data set, the target named is T3, human VDR (Homo sapiens, UniProt P11473).
T3 construct: expressed in transfected cells; host or cells: CV-1
T3 sequence (P11473 whole entry): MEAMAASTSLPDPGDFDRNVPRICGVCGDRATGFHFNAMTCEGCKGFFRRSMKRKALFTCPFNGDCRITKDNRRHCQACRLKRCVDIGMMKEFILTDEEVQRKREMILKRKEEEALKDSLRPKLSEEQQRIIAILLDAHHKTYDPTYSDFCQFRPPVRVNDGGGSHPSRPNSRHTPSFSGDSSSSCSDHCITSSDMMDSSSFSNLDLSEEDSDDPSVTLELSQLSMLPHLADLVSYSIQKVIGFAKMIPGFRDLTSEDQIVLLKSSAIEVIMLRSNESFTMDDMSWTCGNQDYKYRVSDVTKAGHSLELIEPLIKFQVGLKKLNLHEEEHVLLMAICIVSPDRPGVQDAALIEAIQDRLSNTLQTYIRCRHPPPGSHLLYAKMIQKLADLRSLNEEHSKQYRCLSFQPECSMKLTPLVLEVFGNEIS
Nature of the data set: Nuclear receptor specificity transfection assay. The data set is classed as cell-based. To be noted: 10 μM paclitaxel.

In the next data set the target is T4, human RARα (Homo sapiens, UniProt P10276).
T4 construct: expressed in transfected cells; host or cells: CV-1
T4 sequence (P10276 whole entry): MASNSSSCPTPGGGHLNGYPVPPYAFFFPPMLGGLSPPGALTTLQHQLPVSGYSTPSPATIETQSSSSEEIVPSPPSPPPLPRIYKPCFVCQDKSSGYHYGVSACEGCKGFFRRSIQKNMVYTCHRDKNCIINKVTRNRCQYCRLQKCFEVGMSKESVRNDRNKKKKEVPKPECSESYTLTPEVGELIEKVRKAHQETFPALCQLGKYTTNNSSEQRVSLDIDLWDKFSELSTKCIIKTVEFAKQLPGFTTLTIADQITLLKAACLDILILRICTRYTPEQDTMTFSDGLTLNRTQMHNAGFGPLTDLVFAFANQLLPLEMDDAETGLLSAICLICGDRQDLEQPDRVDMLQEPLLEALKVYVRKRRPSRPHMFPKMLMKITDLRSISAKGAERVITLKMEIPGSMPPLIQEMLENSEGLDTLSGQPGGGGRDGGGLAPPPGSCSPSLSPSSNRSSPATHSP
Nature of the data set: Nuclear receptor specificity transfection assay. The format is cell-based. To be noted: 10 μM paclitaxel.

The next data set has as its target T5, human LXRα (Homo sapiens, UniProt Q13133).
T5 construct: expressed in transfected cells; host or cells: CV-1
T5 sequence (Q13133 1-447): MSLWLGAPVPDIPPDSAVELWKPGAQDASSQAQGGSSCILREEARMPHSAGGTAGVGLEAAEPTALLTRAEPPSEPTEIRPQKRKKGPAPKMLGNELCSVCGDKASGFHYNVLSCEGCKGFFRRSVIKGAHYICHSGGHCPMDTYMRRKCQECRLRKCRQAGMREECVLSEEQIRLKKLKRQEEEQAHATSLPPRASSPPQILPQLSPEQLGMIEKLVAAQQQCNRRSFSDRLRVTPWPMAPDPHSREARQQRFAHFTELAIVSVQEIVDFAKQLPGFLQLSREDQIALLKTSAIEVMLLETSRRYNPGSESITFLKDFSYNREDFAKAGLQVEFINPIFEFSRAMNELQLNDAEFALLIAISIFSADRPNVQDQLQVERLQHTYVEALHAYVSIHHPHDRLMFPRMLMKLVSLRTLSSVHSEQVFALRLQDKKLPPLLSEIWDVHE
The data set can be described thus: Nuclear receptor specificity transfection assay. The data set is classed as cell-based. The settings on record: 10 μM paclitaxel.

The target in a further data set is T6, mouse PPARγ (Mus musculus, UniProt P37238).
T6 construct: expressed in transfected cells; host or cells: CV-1
T6 sequence (P37238 whole entry): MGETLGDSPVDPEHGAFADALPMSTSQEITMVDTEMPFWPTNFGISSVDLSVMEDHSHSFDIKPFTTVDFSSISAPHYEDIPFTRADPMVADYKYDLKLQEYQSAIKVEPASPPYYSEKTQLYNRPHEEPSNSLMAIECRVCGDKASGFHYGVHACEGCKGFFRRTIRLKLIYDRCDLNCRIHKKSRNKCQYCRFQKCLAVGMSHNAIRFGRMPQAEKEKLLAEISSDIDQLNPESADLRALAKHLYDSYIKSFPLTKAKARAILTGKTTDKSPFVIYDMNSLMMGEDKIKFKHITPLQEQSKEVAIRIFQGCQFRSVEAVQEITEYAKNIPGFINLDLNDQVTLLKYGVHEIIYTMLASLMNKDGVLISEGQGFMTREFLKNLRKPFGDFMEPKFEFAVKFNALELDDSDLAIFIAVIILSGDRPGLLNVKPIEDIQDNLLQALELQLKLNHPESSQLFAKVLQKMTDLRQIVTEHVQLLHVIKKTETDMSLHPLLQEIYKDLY
The data set can be described thus: Nuclear receptor specificity transfection assay. The data set is classed as cell-based. The settings on record: 10 μM paclitaxel.

Another data set deals with T7, mouse PPARδ (Mus musculus, UniProt P35396).
T7 construct: expressed in transfected cells; host or cells: CV-1
T7 sequence (P35396 1-440): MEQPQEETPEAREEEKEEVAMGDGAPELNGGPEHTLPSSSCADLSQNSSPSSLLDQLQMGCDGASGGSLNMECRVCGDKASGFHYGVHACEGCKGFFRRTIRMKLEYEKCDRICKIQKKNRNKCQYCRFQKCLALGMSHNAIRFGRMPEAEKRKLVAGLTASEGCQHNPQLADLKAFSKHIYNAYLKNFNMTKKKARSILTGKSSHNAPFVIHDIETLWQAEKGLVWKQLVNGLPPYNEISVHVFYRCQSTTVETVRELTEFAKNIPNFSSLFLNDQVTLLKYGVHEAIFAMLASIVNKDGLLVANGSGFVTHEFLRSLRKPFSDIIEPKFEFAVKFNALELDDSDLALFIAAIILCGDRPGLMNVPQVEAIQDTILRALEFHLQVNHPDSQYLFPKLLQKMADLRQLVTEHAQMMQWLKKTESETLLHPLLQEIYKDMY
Nature of the data set: Nuclear receptor specificity transfection assay. The data set is classed as cell-based. The settings on record: 10 μM paclitaxel.

The next data set has as its target T8, FXR (Homo sapiens, UniProt Q96RI1).
T8 construct: expressed in transfected cells; host or cells: CV-1
Nature of the data set: Nuclear receptor specificity transfection assay. The data set is classed as cell-based. To be noted: 10 μM paclitaxel.

The target in another data set is human ERα (Homo sapiens, UniProt P03372). To be noted: 10 μM paclitaxel.
Chain of human ERα (P03372 whole entry): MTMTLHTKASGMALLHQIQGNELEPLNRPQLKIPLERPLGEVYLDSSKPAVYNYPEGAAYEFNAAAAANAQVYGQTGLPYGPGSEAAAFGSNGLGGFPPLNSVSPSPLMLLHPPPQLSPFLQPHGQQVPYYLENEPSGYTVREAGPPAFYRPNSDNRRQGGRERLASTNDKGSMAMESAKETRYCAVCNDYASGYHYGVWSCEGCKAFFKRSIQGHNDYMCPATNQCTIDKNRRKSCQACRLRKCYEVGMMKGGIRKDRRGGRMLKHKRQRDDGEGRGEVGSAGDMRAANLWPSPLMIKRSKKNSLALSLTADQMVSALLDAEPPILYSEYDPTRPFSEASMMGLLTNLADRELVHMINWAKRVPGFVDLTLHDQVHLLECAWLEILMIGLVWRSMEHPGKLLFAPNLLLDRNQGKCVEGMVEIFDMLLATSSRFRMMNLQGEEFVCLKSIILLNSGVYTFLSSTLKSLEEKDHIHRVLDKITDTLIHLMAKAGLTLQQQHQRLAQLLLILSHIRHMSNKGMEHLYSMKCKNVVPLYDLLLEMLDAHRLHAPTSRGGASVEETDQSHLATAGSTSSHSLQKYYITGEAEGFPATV
The subject of a further data set is CYP3A4 and CYP2C8. The settings on record: read-out: Km for degradation of paclitaxel by CYP3A4 and CYP2C8; cited from earlier work.
Another data set concerns CV-1 cells. Nature of the data set: Potential cytotoxic effects at the concentrations and treatment times used. To be noted: at the indicated concentrations and treatment times.

T8 sequence (Q96RI1 whole entry, species assumed): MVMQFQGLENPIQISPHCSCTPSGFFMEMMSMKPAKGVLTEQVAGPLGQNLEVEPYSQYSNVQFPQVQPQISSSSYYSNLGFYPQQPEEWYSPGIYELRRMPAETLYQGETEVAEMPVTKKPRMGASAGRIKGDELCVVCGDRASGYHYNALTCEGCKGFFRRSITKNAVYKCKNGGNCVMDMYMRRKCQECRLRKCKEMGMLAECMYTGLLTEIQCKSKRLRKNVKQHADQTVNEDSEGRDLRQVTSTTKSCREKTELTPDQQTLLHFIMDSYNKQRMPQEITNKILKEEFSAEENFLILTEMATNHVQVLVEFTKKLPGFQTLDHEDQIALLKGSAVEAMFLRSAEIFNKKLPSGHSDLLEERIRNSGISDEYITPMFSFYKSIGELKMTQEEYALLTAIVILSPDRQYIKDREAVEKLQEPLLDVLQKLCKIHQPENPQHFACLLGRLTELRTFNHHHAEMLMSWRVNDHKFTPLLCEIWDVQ

In data set [1], `CC(=O)O[C@H]1C(=O)[C@@]2(C)[C@H]([C@H](OC(=O)c3ccccc3)[C@]3(O)C[C@H](OC(=O)[C@H](O)[C@@H](NC(=O)c4ccccc4)c4ccccc4)C(C)=C1C3(C)C)[C@]1(OC(C)=O)CO[C@@H]1C[C@@H]2O` [paclitaxel] yielded an EC50 of about 5 µM. For the same compound, the “effect on RXR reporter activity” value in data set [2] is on record as “no effect”. Also, the “effect on VDR reporter activity” value on human VDR is “no effect”. In addition, the “effect on RARα reporter activity” value on human RARα is recorded as “no effect”. At human LXRα, the “effect on LXRα reporter activity” value was “no effect”. Moreover, on mouse PPARγ, the “effect on PPARγ reporter activity” value is recorded as “no effect”. The “effect on PPARδ reporter activity” value at mouse PPARδ is listed as “no effect”. Also, at FXR, the “effect on FXR reporter activity” value is “no effect”. For the same compound, at human ERα, the “effect on ERα reporter activity” value was “no effect”. In the data set with CYP3A4 and CYP2C8, the Michaelis constant (Km) is about 10 µM. Moreover, in the data set on CV-1 cells, the potential cytotoxic effects entry is on record as “minimal”.
